Reference: paper PMC9146984, “A Novel Proline-Rich Cathelicidin from the Alpaca Vicugna pacos with Potency to Combat Antibiotic-Resistant Bacteria: Mechanism of Action and the Functional Role of the C-Terminal Region” (Membranes, 2022)
Where a SMILES comes first, the peptide text is derived from it.

Test system: E. coli ML-35p cytoplasmic membrane
Experiment: Cytoplasmic membrane permeabilization (ONPG hydrolysis)
Format: cell-based, Escherichia coli
Experimental: To examine the ability of the peptides to affect the barrier function of the cytoplasmic bacterial membrane, we slightly modified the previously described procedure with the use of the E. coli ML-35p strain constitutively expressing cytoplasmic β-galactosidase but lacking lactose permease. The state of the E. coli ML-35p inner membrane was assessed based on its permeability to chromogenic marker o-nitrophenyl-β-D-galactopyranoside (ONPG, AppliChem, Darmstadt, Germany), which is the β-galactosidase substrate. The cells were incubated in the trypticase soy broth (TSB) for 16 h at 37 °C, washed three times with phosphate-buffered saline (PBS, pH 7.4) to remove residual growth media, adjusted to the concentration of 2.5 × 10^8 CFU/mL, and stored on ice until used. The assay was performed in PBS as well. The final concentration of E. coli ML-35p cells was 2.5 × 10^7 CFU/mL. The concentration of ONPG was 2.5 mM. Peptide samples were placed in the wells of a 96-well plate with a non-binding surface (NBS, Corning #3641), and the optical density (OD) of the solution rose due to the appearance of o-nitrophenol was measured at 405 nm using a microplate reader AF2200 (Eppendorf, Hamburg, Germany). The final volume in each well was 200 µL. Assays were performed at 37 °C under stirring at 500 rpm. Control experiments were performed under the same conditions without adding a peptide. Two independent experiments were performed, and the curve pattern was similar.

## CC[C@H](C)[C@H](NC(=O)[C@H](CCCNC(=N)N)NC(=O)[C@@H](N)CCCNC(=N)N)C(=O)N[C@@H](CCCNC(=N)N)C(=O)N[C@@H](CCCNC(=N)N)C(=O)N1CCC[C@H]1C(=O)N[C@@H](CCCNC(=N)N)C(=O)N[C@@H](CC(C)C)C(=O)N1CCC[C@H]1C(=O)N[C@@H](CCCNC(=N)N)C(=O)N1CCC[C@H]1C(=O)N[C@@H](CCCNC(=N)N)C(=O)N[C@H](C(=O)N1CCC[C@H]1C(=O)N[C@@H](CCCNC(=N)N)C(=O)N1CCC[C@H]1C(=O)N[C@@H](CCCNC(=N)N)C(=O)N[C@H](C(=O)N1CCC[C@H]1C(=O)N1CCC[C@H]1C(=O)N[C@@H](CCCNC(=N)N)C(=O)N[C@H](C(=O)N1CCC[C@H]1C(=O)N[C@@H](CCCNC(=N)N)C(=O)N1CCC[C@H]1C(=O)N[C@H](C(=O)N[C@@H](CC(C)C)C(=O)N1CCC[C@H]1C(=O)N1CCC[C@H]1C(=O)N1CCC[C@H]1C(=O)N[C@@H](CCCNC(=N)N)C(=O)N[C@H](C(=O)N1CCC[C@H]1C(=O)N[C@@H](Cc1ccccc1)C(=O)N1CCC[C@H]1C(=O)N[C@@H](CCCNC(=N)N)C(=O)N[C@@H](Cc1ccccc1)C(=O)N1CCC[C@H]1C(=O)N[C@@H](CCCNC(=N)N)C(N)=O)C(C)C)C(C)C)[C@@H](C)CC)[C@@H](C)CC)C(C)C [VicBac[1-39]] (H-RRIRRPRLPRPRVPRPRIPPRIPRPVLPPPRVPFPRFPR-NH2; N-terminus assumed)
E. coli ML-35p, ONPG, near MIC 0.5 µM
  membrane damage effect at concentrations near the MIC value: negligible membrane damage effect
PBS, 37 °C, OD405, 2.5 mM ONPG, two independent experiments
  effect on E. coli ML-35p cytoplasmic membrane permeability for ONPG: quite moderate effect
